Measured values reported in US9592223B2, “Small molecule inhibitors of MALT1” (Cornell University, priority 2012, dated 2017).

What was measured:
[1] = tested on: MALT1 dependent ABC-DLBCL cells HBL-1, TMD8, OCI-Ly3 and OCI-Ly10; experiment: Growth inhibition, MALT1 dependent cell lines; format: cell-based, human; details: increasing concentrations, single dose, 48 hr
Experimental: Endogenous MALT1 activity was evaluated by Western blotting for A20, BCL10 and CYLD; and NF-κB activation, by phospho-IκB-α and total IκB-α. Dependence on MALT1 proteolytic activity for proliferation was tested by 50[…]μM Z-VRPR-FMK treatment for 48 hr. […] The U2932 and HLY1 ABC-DLBCL cell lines harbor mutations in TAK1 and A20, which activate NF-κB signaling downstream of MALT1.
Cell proliferation was determined by ATP quantification using a luminescent method (CellTiter-Glo, Promega, Madison, Wis.) and Trypan blue dye-exclusion (Sigma, St. Louis, Mo.). Cell viability in drug-treated cells was normalized to their respective controls (fractional viability) and results are given as 1-fractional viability. […]
DLBCL cell lines were grown in exponential growth conditions during the 48 hr of treatment. Cell proliferation was determined by ATP quantification using a luminescent method (CellTiter-Glo, Promega, Madison, Wis.) and Trypan blue dye-exclusion (Sigma, St. Louis, Mo.). Luminescence was measured using the Synergy4 microplate reader (BioTek Instruments, Winooski, Vt.). Standard curves for each cell line were calculated by plotting the cell number (determined by the Trypan blue method) against their luminescence values and number of cells was calculated accordingly. […]

OCI-Ly1 xenografts = experiment: OCI-Ly1 xenograft in NOD-SCID mice; format: in vivo; details: IP 25 mg/kg/day
Experimental: Animals were sacrificed 24 hr after the fourteenth injection.
Eight-week old male SCID NOD.CB17-Prkdc^scid/J mice were subcutaneously injected with low-passage 10^7 human HBL-1, TMD8 or OCI-Ly1 cells. Treatment was administered by intra-peritoneal injection. Tumor volume was monitored by three-weekly digital calipering. All procedures followed US NIH protocols and were approved by the Animal Institute Committee of the Weill Cornell Medical College.
Eight-week old male SCID NOD.CB17-Prkdc^scid/J mice were purchased from Jackson Laboratories (Bar Harbor, Minn.) and housed in a clean environment. Mice were subcutaneously injected with low-passage 10^7 human TMD8 or OCI-Ly1 cells in 50% matrigel (BD Biosciences, #354234). Treatment was initiated when tumors reached an average size of 120 mm^3 (17 days post-transplantation). Drugs were reconstituted in DMSO and stored at −80° C. until used and were administered by intra-peritoneal injection. Tumor volume was monitored by three-weekly digital calipering (Fisher Scientific, Thermo Scientific, Rockford, Ill.) and calculated using the formula (smallest diameter^2×largest diameter)/2. Data were expressed as mean±SEM, and differences were considered statistically significant at p<0.05 by paired Student's t-test. […]

[2] = target: T1, MALT1 active site mutant C464A (Homo sapiens, UniProt Q9UDY8, C464A); experiment: LC-MS covalent modification, active site mutant; format: binding
T1 construct: MALT1 paracaspase domain (329-728) presented a major peak at 55,988.4 Da
Experimental: The final results were ranked on the predicted binding free energy and the cluster size for each docking conformation.
HPLC/ESI-MS experiments were carried out on 5 μl sample at 1 mg/ml protein concentration. Separation of proteins was performed on a HP 1100 system (Hewlett Packard, Palo Alto, Calif., USA) employing a 1 mm×150 mm LC Packings column packed with POROS R1/H (Perseptive Biosystems, Foster City, Calif., USA). The column was kept at 80° C. Samples were injected onto the column using a CTC PAL autosampler (CTC, Zwingen Switzerland) fitted with a Valco model C6UW HPLC valve (Valco, Houston, Tex., USA) and a 10 μl injection loop. HPLC was controlled by MassLynx software (Micromass, Manchester, UK). UV detection was performed at 214 nm. Eluent A was water containing 0.05% TFA. Eluent B was a 1:9 mixture of water:acetonitrile containing 0.045% TFA. A gradient from 20% B to 90% B was run in 20 minutes. The flow rate was typically 60 μl/min. The total flow from the LC system was introduced into the UV detection cell prior to introduction in the ESI source. The HPLC system was controlled and the signal from the UV detector was processed using MassLynx software. […] Data were recorded and processed using MassLynx software. […]

T1 sequence (Q9UDY8 329-728 C464A): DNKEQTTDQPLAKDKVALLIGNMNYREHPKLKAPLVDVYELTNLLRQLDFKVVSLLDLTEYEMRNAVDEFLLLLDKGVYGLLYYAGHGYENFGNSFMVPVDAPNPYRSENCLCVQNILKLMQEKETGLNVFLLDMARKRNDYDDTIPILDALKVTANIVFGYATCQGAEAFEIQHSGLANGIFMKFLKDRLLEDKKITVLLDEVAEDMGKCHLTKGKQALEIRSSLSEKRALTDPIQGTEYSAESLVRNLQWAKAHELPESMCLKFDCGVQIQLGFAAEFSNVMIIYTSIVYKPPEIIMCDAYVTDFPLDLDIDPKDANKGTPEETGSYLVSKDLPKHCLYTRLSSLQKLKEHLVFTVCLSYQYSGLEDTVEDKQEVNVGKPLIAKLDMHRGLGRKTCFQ

## COCCOc1nc(-c2ccc(Cl)c(Cl)c2)n(-c2ccc(NC(=O)CCl)cc2)n1 [MI-2]
[1]
  growth inhibition: selective for MALT1 dependent cell lines
OCI-Ly1 xenografts; fourteen injections, p=0.47
  tumor growth vs. vehicle: no effect on the growth
OCI-Ly1 xenografts; p=1.0
  proliferation (Ki-67 staining): no difference
[2]
  covalent binding to MALT1 C464A: markedly reduced covalent binding
